These results are taken from patent US20260250325A1, “Antiviral Polypeptide Membrane Fusion Inhibitor, and Preparation Method and Application Thereof” (priority 2025, published 2026).

One data set has as its target T1, hMPV-N46 (127-172) (Human metapneumovirus, UniProt Q6WB98).
T1 construct: hMPV-N46 (127-172)
The data set is described as follows: SPR affinity to hMPV-N46 coupled on CM5 chip. Type of data set: binding.

A short description of data set [1]: Cytotoxicity test in HEp-2 cells (CCK8 cell viability). The format is cell-based. Particulars: human; HEp-2 cells, CCK8, 1 day; read-out: CC50. The procedure, abridged:
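HEp-2 cells seeded at 30,000/well, cultured overnight at 37° C./5% CO2, then exposed to diluted compound for 1 day in 0.5% DMSO. Viability read by CCK8, normalised to untreated-cell and medium-only controls; CC50 from four-parameter variable-slope fit.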

A further data set concerns RSV A long virus strain. The format is cell-based. Particulars: RSV A long virus strain, HEp-2 cells, plaque reduction, 1 day; read-out: IC50. In short, it runs like this:
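HEp-2 cells (30000/well) infected with 100 PFU virus premixed 1 h with compound (8 concentrations, duplicate); after 2 h adsorption, cultured 1 day at 37 °C under 0.8% CMC overlay with compound. Plaques immunostained (RSV antibody, TrueBlue) and counted; IC50 and CC50 by non-linear fitting of % inhibition versus virus and cell controls.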

The next data set has as its target T2, hPIV-N51 (139-189) (Human parainfluenza 3 virus, UniProt P06828).
T2 construct: hPIV-N51 (139-189)
The data set is described as follows: SPR affinity to hPIV-N51 coupled on CM5 chip. The format is binding.

The star is where a group is joined. Succinyl(4-O-cholesteryl) = CC(C)CCC[C@@H](C)[C@H]1CC[C@H]2[C@@H]3CC=C4C[C@@H](OC(=O)CCC(=O)*)CC[C@]4(C)[C@H]3CC[C@]12C

T2 sequence (P06828 139-189): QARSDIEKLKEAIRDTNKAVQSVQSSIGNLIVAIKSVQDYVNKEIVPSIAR
T1 sequence (Q6WB98 127-172): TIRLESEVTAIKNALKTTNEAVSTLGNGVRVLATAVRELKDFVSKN

On to “Ac-LVKKIDEFDASISQVNEKINQSLEEIRKSDELLHNVGSGSGK(Succinyl(4-O-cholesteryl))-NH2 [Compound 29]”, for which the Kd on hMPV-N46 (127-172) amounted to 48.2 nM; on hPIV-N51 (139-189) it was 1730 nM. Also, the CC50 at 1 day in data set [1] is 15 µM. Further, the IC50 in the data set on RSV A long virus strain was 19.3 nM.
As to “Ac-WDEFDASISQVNEKINQSLEEIRKSDELLHNVNAGLGSGSGK(Succinyl(4-O-cholesteryl))-NH2 [Compound 27]”, the Kd on hMPV-N46 (127-172) amounted to 2920 nM; on hPIV-N51 (139-189), 812 nM. For the same substance, in data set [1], the CC50 at 1 day worked out at 18.4 µM. Moreover, the IC50 in the data set on RSV A long virus strain is 25.7 nM.
Taken in the same sequence, the figures for “Ac-WDEFDASISQVNEKINQSLEEIRKSDELLHNVNALEAAAKK(Succinyl(4-O-cholesteryl))-NH2 [Compound 38]” were 392 nM, 24500 nM, 10.9 µM and 14.6 nM.
